Results from patent US8664237B2 (The Johns Hopkins University, priority 2008, dated 2014).

Columns and labels:
[1] = test system: IB3-1 cells; assay: Fura-2 microscope calcium measurement in IB3-1 cells; assay type: cell-based, human; conditions: for effect of preincubation on the spiperone-induced Ca2+ increase: inhibitor given before spiperone; for spiperone Ca2+ response after prior addition of the analog: analog added prior to spiperone; for increase of intracellular Ca2+ / Ca2+ release: spiperone analogs, solution not stated
Excerpt: . A microscope-based fluorescence Ca^2+ measurement system was utilized in this study. First IB3-1 cells grown on a coverglass were bathed in the ECaT Ringer's which was used for the screen. […] In order to ascertain the origin of this sustained increase the experiment was repeated except with Ca^2+-free ECaT Ringer's solution, (See FIG. 8).
Using normal Ringers, a study was undertaken to determine whether the source of the increase in cytoplasmic Ca^2+ was indeed the endoplasmic reticulum (ER). As part of the normal Ca^2+ transit system across the ER, the Ca^2+-ATPase pumps Ca^2+ from the cytosol to the ER uphill against the concentration gradient. Other channels continue to cycle Ca^2+ from ER back to cytosol. Thapsigargin blocks the Ca^2+-ATPase, inhibiting the uphill uptake. […]
Phospholipase C (PLC) is an intracellular enzyme that participates in calcium signaling pathways. […]. There are two major molecules that activate PLC pathways to release Ca^2+ from the ER. One is the G-protein coupled receptors. The second is the protein tyrosine kinase […]. […]. […] (FIG. 12G is the summary data of genistein treatment.) Lavendustin A is another protein tyrosine kinase inhibitor. […].
(§1) Cells were seeded on the collagen-coated cover glass for 48 h. Cell Ca^2+ was measured with a dual excitation wavelength microscope system. Fura-2 fluorescence was excited at 340 nm and 380 nm with xenon light. Fluorescence was measured at 510 nm emission wavelength. Data was processed and analyzed using IPLab 4.0 software. Fluorescence data of each experiment were normalized to the individual basal fluorescence value ΔF/F0=(F−F0)/F0 to bring all the response curves to the same pretreatment starting point.

[2] = test system: CFBE41o- cells; assay: Short-circuit current measurement (Cl- secretion), CFBE41o- monolayers; assay type: cell-based, human; conditions: for Cl- secretion (short circuit current): normal Ringer's, amiloride
Description: (§2) An experiment was carried out to establish that the spiperone-induced increase of Ca^2+ would produce an increase in Cl^− transport relevant to CF, and that it would do so in CF relevant epithelial cells. Calu-3 and CFBE41o-cell monolayers were cultured on permeable filter support and “short circuit current” measurements were performed to evaluate the current produced by Cl^− in these cells.
(§3) Na^+ is a positively charged ion and its absorption would interfere with the short circuit measurement for Cl^− secretion. Therefore, in normal Ringer's solution, Na^+ absorption across the cell membrane was blocked with amiloride. Cell monolayers were then exposed to the two relevant compounds: niflumic acid (NFA), which is a non-selective CaCCs blocker or to CFTRinh-172, which is a specific CFTR blocker.
(§4) Calu-3 and CFBE41o-cells were cultured on Snapwell inserts until they formed a tight monolayer as monitored by measuring the transepithelial resistance. The bottom of the monolayer was taken out, mounted on the Ussing chamber and buffered by the testing solutions. The short-circuit current was measured by a VCC MC6 multichannel voltage/current clamp (Physiologic Instruments, San Diego, Calif.). Data were recorded and analyzed by Acquire and Analyze software.

[3] = target: 5-HT2 receptor (Homo sapiens, UniProt P28223); conditions: antagonists; cited from earlier work
[4] = target: dopamine D2 receptor (Homo sapiens, UniProt P14416); conditions: cited from earlier work
[5] = test system: 5-HT receptor; conditions: canine tracheal epithelia, another study; cited from earlier work
[6] = test system: Calu-3 cells; assay: Fura-2 microscope calcium measurement in Calu-3 cells; assay type: cell-based, human; conditions: Calu-3 non-CF; Ca2+-free Ringers
Description: as §1

[7] = test system: CFBE41o- cells; assay: Fura-2 microscope calcium measurement in CFBE41o- cells; assay type: cell-based, human; conditions: CFBE41o- CF; Ca2+-free Ringers
Description: as §1

[8] = test system: NHBE; assay: Fura-2 microscope calcium measurement in NHBE primary cells; assay type: cell-based, human; conditions: NHBE primary culture; Ca2+-free Ringers
Description: as §1

[9] = test system: Calu-3 cells; assay: Short-circuit current measurement (Cl- secretion), Calu-3 monolayers; assay type: cell-based, human; conditions: for Cl- current (short circuit current): normal Ringer's, Na+ absorption blocked with amiloride; for effect of channel blocker on spiperone-induced sustained Cl- release / effect of channel blocker on spiperone-induced transient Cl-: amiloride present
Description: as §2, §3, §4

[10] = test system: nasal epithelia of wild-type (C57B1/6) mice; assay: Mouse nasal potential difference, wild-type C57B1/6 mice; conditions: after elimination of mucosal Cl-
Description: Animals: The studies conducted were approved by the Johns Hopkins University Animal Care and Use Committee. […] Nasal Potential Difference (NPD): All mice were anesthetized with an IP injection of a ketamine and xylazine mixture (100 mcg/10 mcg per gram of body weight). […] Briefly, a high impedance voltmeter (World Precision Instruments, Sarasota, Fla.) was connected by silver-chloride pellet electrodes to an exploring nasal bridge and a reference subcutaneous bridge. The nasal bridge, a single polyethylene tube (PE10, 0.28 mm ID, Clay-Adams, B D, Sparks, Md.) was pulled to one-half its original diameter and cut at a 45 degree angle. The tubing was marked and inserted 5 mm from the tip of the nare. A paper tape flag indicated position and orientation of the tip. The subcutaneous bridge was a 25 GA Butterfly® (Abbott, Chicago, Ill.) needle containing Ringer's solution inserted subcutaneously in the right abdominal wall. Each solution was warmed to 37° C. and perfused to the nare for at least 3 minutes at 5 micro liters per minute using a perfusion pump. Following the procedure, the oral cavity was gently suctioned of perfusate and the mice were recovered to their cages. Voltmeter data (mV) was recorded by a PowerLab A/D converter connected to a PC running Chart software at 20 samples per second (AD Instruments, Colorado Springs, Colo.). […]

[11] = test system: nasal epithelium of CFKO mice; assay: Mouse nasal potential difference, CF (double transgenic CFKO) mice
Description: In order to allow for later hyperpolarization from chloride secretion, their nasal epithelia were perfused with baseline Ringers with amiloride added to block the epithelial Na^+ channel. For the next perfusion, the Cl^− was removed by substituting Na^+ gluconate in the baseline Ringer's solution (FIG. 8), then removed Cl^− from the mucosa by perfusing the nare with that Ringer's.
Nasal Potential Difference (NPD): All mice were anesthetized with an IP injection of a ketamine and xylazine mixture (100 mcg/10 mcg per gram of body weight). […] Briefly, a high impedance voltmeter (World Precision Instruments, Sarasota, Fla.) was connected by silver-chloride pellet electrodes to an exploring nasal bridge and a reference subcutaneous bridge. The nasal bridge, a single polyethylene tube (PE10, 0.28 mm ID, Clay-Adams, B D, Sparks, Md.) was pulled to one-half its original diameter and cut at a 45 degree angle. The tubing was marked and inserted 5 mm from the tip of the nare. A paper tape flag indicated position and orientation of the tip. The subcutaneous bridge was a 25 GA Butterfly® (Abbott, Chicago, Ill.) needle containing Ringer's solution inserted subcutaneously in the right abdominal wall. Each solution was warmed to 37° C. and perfused to the nare for at least 3 minutes at 5 micro liters per minute using a perfusion pump. Following the procedure, the oral cavity was gently suctioned of perfusate and the mice were recovered to their cages. Voltmeter data (mV) was recorded by a PowerLab A/D converter connected to a PC running Chart software at 20 samples per second (AD Instruments, Colorado Springs, Colo.). A minimum of 400 data points (˜20 seconds) were used to calculate the mean voltage values.

[12] = test system: IB3-1 cells; assay: Compound screening for calcium enhancers (Fura-2 fluorescence plate reader)
Description: Thus for the ECaT Ringers, we eliminated Na^+ from the solution and replaced it completely by N-methyl-D-glucamine (NMDG) to maintain the solution osmolality to favor Ca^2+ for entry through the P2X receptor. We were searching for compounds that activate the P2X receptor channel or other Ca^2+ entry channels, as well as compounds that bind to membrane or cellular proteins which are involved in intracellular Ca^2+ regulation.
Compounds were selected as potential hits if their change of fluorescence ratio fell within 3 SD of those obtained for zinc (ratio), and larger than that recorded for DMSO (ratio) +3SD. The average Z factor of all 25 plates is 0.6 for the 15 min detection. Hits were solely based on the change in the fluorescence ratio. Any compound that was highly auto-fluorescent was not considered further.
We further evaluated 37 hits manually using the Fluorescence Plate Reader system. […] Following this initial vetting process, the half-maximal effective concentration (EC50) was determined of each of the remaining 19 molecules. […] Compound Library: Library MSSP (Microsource Discovery Inc) was our source for compounds for the primary screening. The compounds were known bioactive compounds and natural products and their derivatives. The library contained 2,000 compounds on twenty-five 96-well plates, with 80 compounds tested per plate. In the master plates, each compound was suspended in DMSO at a concentration of 10 mM. A set of 96-well plates of the library in a concentration of 2 mM in DMSO was made prior to the screening.
Screening Procedure: The screening was performed by the Johns Hopkins University High Throughput Biology Center Chemcore. […] The fluorescence ratio was measured in ECaT Ringer's solution by a Tecan Safire Fluorescence Plate Reader. […] The fluorescence ratio was measured again immediately after adding the compounds. The final fluorescence detection was done 15 min after the second detection in order to find compounds which stimulate the sustained Ca^2+ increase.

[13] = 24 weeks of treatment, phase III trial, inhaled; cited from earlier work

5-HT2 receptor, sequence (P28223 whole entry): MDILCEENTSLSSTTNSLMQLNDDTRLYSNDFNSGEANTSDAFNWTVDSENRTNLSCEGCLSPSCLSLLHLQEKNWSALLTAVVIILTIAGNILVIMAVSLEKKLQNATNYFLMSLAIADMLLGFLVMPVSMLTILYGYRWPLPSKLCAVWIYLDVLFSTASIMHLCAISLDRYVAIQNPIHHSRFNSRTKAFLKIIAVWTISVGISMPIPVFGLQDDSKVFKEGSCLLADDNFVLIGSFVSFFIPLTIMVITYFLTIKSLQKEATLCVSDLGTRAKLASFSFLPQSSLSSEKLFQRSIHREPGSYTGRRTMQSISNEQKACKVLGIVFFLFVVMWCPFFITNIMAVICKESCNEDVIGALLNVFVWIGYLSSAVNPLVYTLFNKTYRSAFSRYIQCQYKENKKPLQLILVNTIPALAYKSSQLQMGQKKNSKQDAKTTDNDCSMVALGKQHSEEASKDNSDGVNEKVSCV
dopamine D2 receptor, sequence (P14416 whole entry, species assumed): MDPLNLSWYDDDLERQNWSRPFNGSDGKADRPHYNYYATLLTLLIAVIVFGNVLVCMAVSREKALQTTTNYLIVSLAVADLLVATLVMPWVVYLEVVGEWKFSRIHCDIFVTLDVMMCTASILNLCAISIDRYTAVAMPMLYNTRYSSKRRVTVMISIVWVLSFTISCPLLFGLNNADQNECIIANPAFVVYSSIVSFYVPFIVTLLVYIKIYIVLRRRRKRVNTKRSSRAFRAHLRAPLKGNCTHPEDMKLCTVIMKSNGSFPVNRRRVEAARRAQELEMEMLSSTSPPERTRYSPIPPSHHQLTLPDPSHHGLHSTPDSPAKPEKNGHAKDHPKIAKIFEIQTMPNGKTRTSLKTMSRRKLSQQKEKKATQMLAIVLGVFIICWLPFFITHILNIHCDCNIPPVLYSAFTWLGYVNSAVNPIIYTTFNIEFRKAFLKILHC

## C/C=C(/C)C(=O)O[C@H]1C(C)=C2[C@H]([C@@H]1OC(=O)CCCCCCC)[C@@](C)(OC(C)=O)C[C@H](OC(=O)CCC)[C@@]1(O)[C@H]2OC(=O)[C@@]1(C)O [thapsigargin]
[1]; normal Ringer's
  change in cytoplasmic Ca2+: net increase in Ca^2+ in the cytosol
[2]
  Cl- secretion (short circuit current): transient increase in Cl^− secretion

## COc1ccc2c(c1)CC[C@@H]1[C@@H]2CC[C@]2(C)[C@@H](NCCCCCCN3C(=O)C=CC3=O)CC[C@@H]12 [U73122]
[1]
  effect of preincubation on the spiperone-induced Ca2+ increase: diminished

## O=C(c1ccc(F)cc1)C1CCN(CCn2c(=O)[nH]c3ccccc3c2=O)CC1 [ketanserin]
[1]; Ca2+-free normal Ringer's
  spiperone Ca2+ response after prior addition of the analog: spiperone was still able to stimulate a transient increase in Ca^2+
[1]
  increase of intracellular Ca2+ / Ca2+ release: did not increase intracellular Ca^2+
[3]
  affinity for the 5-HT2 receptor: high affinity
[4]
  antagonism of the dopamine receptor: very weakly antagonistic
[5]
  effect on 5-HT effects (inhibited Na+ absorption, stimulated Cl- secretion): blocked those effects

## O=C(CCCN1CCC2(CC1)C(=O)NCN2c1ccccc1)c1ccc(F)cc1 [spiperone]
[1]; Ca2+-free ECaT Ringer's
  change in cytoplasmic Ca2+: only a transient increase in cytoplasmic Ca^2+
[1]; Ca2+-free normal Ringer's
  change in cytoplasmic Ca2+: only a transient increase in Ca^2+
[1]; ECaT Ringer's
  change in cytoplasmic Ca2+: sustained increase in Ca^2+
[1]; cells treated with spiperone before thapsigargin, normal Ringers
  cytosolic Ca2+ response to thapsigargin after spiperone: no increase in cytosolic Ca^2+
[1]; normal Ringer's
  change in cytoplasmic Ca2+: only a transient increase in Ca^2+
[6]
  change in Ca2+: transient increase in Ca^2+
[7]
  change in Ca2+: transient increase in Ca^2+
[8]
  change in Ca2+: transient increase in Ca^2+
[9]; 20 μM, monolayers
  Cl- secretion: stimulated Cl^− secretion
[9]; "our study", airway epithelial cells
  amount of spiperone required to induce Cl- secretion: at least 1 μmol
[9]
  Cl- current (short circuit current): a transient and then a sustained Cl^− current
[2]; 20 μM, monolayers
  Cl- secretion: stimulated Cl^− secretion
[2]
  Cl- secretion (short circuit current): only a transient Cl^− secretion
[2]; subsequent to thapsigargin
  Cl- transit on spiperone applied after thapsigargin: failed to stimulate any additional Cl^− transit
[3]
  affinity for the 5-HT2 receptor: high affinity
[4]; antagonists
  affinity for the dopamine D2 receptor: high affinity
[10]
  nasal potential difference / Cl- conductance: did not induce any further hyperpolarization
[11]; 1 μM in Zero Cl- baseline Ringer's, after amiloride, nasal perfusion
  nasal potential difference / Cl- conductance: hyperpolarized the mouse nasal potential significantly
[11]; 1 μM, after 19 min of sustained perfusion
  nasal potential difference: remained significantly hyperpolarized
[11]; subsequent increase to 20 μM
  nasal potential difference / Cl- conductance: did not boost Cl^− conductance
[12]; higher concentrations, inhibition
  spiperone concentrations at which the Ca2+ stimulation is reduced: > 50 µM
[12]; lower concentrations, activation
  spiperone concentrations that stimulate cytoplasmic Ca2+: less than 50 μM

## NCCOB(c1ccccc1)c1ccccc1 [2APB]
[1]; 100 μM, 30 minutes incubation, data not shown
  effect on the spiperone induced Ca2+ release from ER: totally blocked

## O=C(O)c1cc(N(Cc2ccccc2O)Cc2cc(O)ccc2O)ccc1O [lavendustin A]
[1]; 10 μM, data not shown
  effect on the increase in Ca2+ induced by spiperone: significantly diminished

## [Zn] [Zinc, zinc]
[12]; ECaT Ringer's, plate reader
  increase in cytoplasmic Ca2+ (change in fluorescence ratio): long lasting increase in cytoplasmic Ca^2+

## O=C(CCCN1CCC(O)(c2ccc(Cl)cc2)CC1)c1ccc(F)cc1 [haloperidol]
[1]; Ca2+-free normal Ringer's
  spiperone Ca2+ response after prior addition of the analog: spiperone was still able to stimulate a transient increase in Ca^2+
[1]
  increase of intracellular Ca2+ / Ca2+ release: did not release Ca^2+
[9]; analog given before spiperone
  effect on spiperone-stimulated transepithelial Cl- currents: did not prevent spiperone from stimulating transepithelial Cl^− currents
[9]
  Cl- current (short circuit current): did not stimulate the Cl^− current

## O=C(O)c1cccnc1Nc1cccc(C(F)(F)F)c1 [NFA, niflumic acid]
[9]
  effect of channel blocker on spiperone-induced sustained Cl- release: totally blocked
  effect of channel blocker on spiperone-induced transient Cl-: reduced
[2]
  effect of CaCC blocker on spiperone's effect on Cl- secretion: reduced significantly

## Cc1ccc(C(=O)Nc2ccc(S(=O)(=O)O)c3cc(S(=O)(=O)O)cc(S(=O)(=O)O)c23)cc1NC(=O)c1cccc(NC(=O)Nc2cccc(C(=O)Nc3cc(C(=O)Nc4ccc(S(=O)(=O)O)c5cc(S(=O)(=O)O)cc(S(=O)(=O)O)c45)ccc3C)c2)c1 [Suramin, suramin]
[1]
  effect of preincubation on the spiperone-induced Ca2+ increase: did not reduce

## O=C(O)c1ccc(/C=C2\SC(=S)N(c3cccc(C(F)(F)F)c3)C2=O)cc1 [CFTRinh-172]
[9]
  effect of channel blocker on spiperone-induced sustained Cl- release: totally blocked
  effect of channel blocker on spiperone-induced transient Cl-: reduced

## Nc1ccn([C@H]2C[C@H](O)[C@@H](COP(=O)(O)OP(=O)(O)OP(=O)(O)OP(=O)(O)OC[C@H]3O[C@@H](n4ccc(=O)[nH]c4=O)[C@H](O)[C@@H]3O)O2)c(=O)n1 [Denufosol, denufosol]
[13]
  improvement in lung function: 2.5%

## COc1ccc2c(c1)CC[C@@H]1[C@@H]2CC[C@]2(C)C(NCCCCCCN3C(=O)CCC3=O)CC[C@@H]12 (stereo partly shown) [U73433]
[1]
  effect of preincubation on the spiperone-induced Ca2+ increase: did not

## O=c1c(-c2ccc(O)cc2)coc2cc(O)cc(O)c12 [genistein]
[1]
  effect of preincubation on the spiperone-induced Ca2+ increase: partially blocked
